Data: article PMC6013247, “Preclinical characterization of INCB053914, a novel pan-PIM kinase inhibitor, alone and in combination with anticancer agents, in models of hematologic malignancies” (PLoS ONE, 2018)

How the values were obtained:
[1] = target: PIM2 (Homo sapiens, UniProt Q9P1W9); test: Kinase selectivity panel; assay type: biochemical; settings: [ATP] = 1 mM
[2] = target: BRAF (Homo sapiens, UniProt P15056); test: Kinase selectivity panel; assay type: biochemical; settings: [ATP] = 1 mM
[3] = target: BTK (Homo sapiens, UniProt Q06187); test: Kinase selectivity panel; assay type: biochemical; settings: [ATP] = 1 mM
Chain of BTK (Q06187 whole entry): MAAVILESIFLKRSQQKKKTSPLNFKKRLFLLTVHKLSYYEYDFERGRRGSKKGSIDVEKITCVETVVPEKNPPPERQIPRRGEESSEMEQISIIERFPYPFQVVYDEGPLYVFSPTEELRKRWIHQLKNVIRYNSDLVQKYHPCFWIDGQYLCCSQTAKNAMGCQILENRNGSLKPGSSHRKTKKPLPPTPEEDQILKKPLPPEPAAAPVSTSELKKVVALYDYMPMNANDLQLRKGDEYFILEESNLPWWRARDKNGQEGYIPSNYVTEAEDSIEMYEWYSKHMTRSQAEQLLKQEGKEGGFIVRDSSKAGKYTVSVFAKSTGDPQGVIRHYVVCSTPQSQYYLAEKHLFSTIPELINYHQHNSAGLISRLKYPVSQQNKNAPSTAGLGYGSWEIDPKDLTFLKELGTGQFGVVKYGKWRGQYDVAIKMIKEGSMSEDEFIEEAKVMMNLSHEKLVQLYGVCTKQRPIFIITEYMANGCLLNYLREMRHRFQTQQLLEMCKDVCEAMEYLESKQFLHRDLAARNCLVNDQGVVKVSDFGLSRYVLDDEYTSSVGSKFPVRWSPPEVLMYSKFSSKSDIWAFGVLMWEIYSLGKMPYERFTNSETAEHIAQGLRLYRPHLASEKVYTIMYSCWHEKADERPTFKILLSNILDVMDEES

[4] = target: CHEK2 (Homo sapiens, UniProt O96017); test: Kinase selectivity panel; assay type: biochemical; settings: [ATP] = 1 mM
Chain of CHEK2 (O96017 whole entry): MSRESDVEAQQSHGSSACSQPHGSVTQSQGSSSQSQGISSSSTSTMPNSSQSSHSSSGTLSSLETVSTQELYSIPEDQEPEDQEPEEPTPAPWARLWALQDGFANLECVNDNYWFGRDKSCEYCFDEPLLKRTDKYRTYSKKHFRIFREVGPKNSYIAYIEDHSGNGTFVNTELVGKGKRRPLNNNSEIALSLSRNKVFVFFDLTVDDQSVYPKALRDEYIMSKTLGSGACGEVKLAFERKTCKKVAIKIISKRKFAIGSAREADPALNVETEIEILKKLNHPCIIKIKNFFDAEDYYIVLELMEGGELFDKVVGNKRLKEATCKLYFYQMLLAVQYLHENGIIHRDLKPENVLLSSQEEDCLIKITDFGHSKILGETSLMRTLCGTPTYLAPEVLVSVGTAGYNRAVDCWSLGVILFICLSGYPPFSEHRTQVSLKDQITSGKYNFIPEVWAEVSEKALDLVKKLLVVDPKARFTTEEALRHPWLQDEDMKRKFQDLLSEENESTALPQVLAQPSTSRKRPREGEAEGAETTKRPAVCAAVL

[5] = target: DDR2 (Homo sapiens, UniProt Q16832); test: Kinase selectivity panel; assay type: biochemical; settings: [ATP] = 1 mM
[6] = target: EGFR (Homo sapiens, UniProt P00533); test: Kinase selectivity panel; assay type: biochemical; settings: [ATP] = 1 mM
Chain of EGFR (P00533 25-1210): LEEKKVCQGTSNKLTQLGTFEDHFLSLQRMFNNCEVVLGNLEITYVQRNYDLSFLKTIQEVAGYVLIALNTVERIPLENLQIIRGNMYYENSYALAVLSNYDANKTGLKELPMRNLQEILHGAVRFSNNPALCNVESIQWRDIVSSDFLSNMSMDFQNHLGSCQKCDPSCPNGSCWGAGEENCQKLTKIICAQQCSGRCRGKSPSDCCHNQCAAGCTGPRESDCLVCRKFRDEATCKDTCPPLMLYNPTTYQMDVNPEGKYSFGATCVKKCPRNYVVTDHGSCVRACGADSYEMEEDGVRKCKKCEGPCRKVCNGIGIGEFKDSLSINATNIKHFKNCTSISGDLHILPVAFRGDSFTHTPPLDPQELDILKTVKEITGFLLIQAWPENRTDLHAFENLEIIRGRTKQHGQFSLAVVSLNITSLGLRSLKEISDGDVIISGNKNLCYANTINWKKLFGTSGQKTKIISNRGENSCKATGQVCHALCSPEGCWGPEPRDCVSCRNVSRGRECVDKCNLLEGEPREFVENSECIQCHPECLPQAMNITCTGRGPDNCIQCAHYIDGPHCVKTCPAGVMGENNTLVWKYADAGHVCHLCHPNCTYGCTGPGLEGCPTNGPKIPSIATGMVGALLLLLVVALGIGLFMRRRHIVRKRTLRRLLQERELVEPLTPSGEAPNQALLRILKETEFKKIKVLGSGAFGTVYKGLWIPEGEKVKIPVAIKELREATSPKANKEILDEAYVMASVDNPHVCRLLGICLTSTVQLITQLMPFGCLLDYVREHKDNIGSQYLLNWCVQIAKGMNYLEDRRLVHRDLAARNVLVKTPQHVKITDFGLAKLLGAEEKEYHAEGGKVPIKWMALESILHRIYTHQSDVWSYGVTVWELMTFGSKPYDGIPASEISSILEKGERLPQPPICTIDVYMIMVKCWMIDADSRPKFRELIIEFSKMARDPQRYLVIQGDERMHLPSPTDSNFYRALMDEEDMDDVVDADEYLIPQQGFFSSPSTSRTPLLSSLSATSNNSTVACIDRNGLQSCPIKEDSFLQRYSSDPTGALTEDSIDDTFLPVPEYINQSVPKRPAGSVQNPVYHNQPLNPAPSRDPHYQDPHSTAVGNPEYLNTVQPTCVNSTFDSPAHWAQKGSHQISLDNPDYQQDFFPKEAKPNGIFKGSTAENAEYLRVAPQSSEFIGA

[7] = target: HIPK3 (Homo sapiens, UniProt Q9H422); test: Kinase selectivity panel; assay type: biochemical; settings: [ATP] = 1 mM
[8] = target: IGF1R (Homo sapiens, UniProt P08069); test: Kinase selectivity panel; assay type: biochemical; settings: [ATP] = 1 mM
[9] = target: IKKA (Homo sapiens, UniProt O15111); test: Kinase selectivity panel; assay type: biochemical; settings: [ATP] = 1 mM
[10] = target: IKKB (Homo sapiens, UniProt O14920); test: Kinase selectivity panel; assay type: biochemical; settings: [ATP] = 1 mM
Chain of IKKB (O14920 whole entry): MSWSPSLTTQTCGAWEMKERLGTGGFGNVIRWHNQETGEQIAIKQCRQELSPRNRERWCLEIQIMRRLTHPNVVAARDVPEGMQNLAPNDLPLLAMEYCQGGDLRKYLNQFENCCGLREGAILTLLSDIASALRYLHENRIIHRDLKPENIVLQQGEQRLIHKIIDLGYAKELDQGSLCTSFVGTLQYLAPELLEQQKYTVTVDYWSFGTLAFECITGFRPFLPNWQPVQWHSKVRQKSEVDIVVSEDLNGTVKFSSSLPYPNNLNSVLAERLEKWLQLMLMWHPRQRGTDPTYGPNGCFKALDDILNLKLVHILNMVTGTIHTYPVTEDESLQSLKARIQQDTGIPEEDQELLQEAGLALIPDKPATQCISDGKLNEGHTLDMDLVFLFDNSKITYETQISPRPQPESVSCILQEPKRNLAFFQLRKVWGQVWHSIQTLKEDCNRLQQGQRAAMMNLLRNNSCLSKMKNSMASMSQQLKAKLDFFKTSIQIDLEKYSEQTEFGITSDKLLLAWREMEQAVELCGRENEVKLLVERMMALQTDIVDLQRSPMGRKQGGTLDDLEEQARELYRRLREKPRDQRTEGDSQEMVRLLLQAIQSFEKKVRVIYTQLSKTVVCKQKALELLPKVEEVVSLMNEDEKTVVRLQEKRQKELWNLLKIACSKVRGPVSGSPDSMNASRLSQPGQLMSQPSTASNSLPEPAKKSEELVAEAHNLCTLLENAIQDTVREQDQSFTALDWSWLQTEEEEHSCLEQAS

[11] = target: JNK1 (Homo sapiens, UniProt P45983); test: Kinase selectivity panel; assay type: biochemical; settings: [ATP] = 1 mM
[12] = target: MSSK1 (Homo sapiens, UniProt Q9UPE1); test: Kinase selectivity panel; assay type: biochemical; settings: [ATP] = 1 mM
Chain of MSSK1 (Q9UPE1 whole entry): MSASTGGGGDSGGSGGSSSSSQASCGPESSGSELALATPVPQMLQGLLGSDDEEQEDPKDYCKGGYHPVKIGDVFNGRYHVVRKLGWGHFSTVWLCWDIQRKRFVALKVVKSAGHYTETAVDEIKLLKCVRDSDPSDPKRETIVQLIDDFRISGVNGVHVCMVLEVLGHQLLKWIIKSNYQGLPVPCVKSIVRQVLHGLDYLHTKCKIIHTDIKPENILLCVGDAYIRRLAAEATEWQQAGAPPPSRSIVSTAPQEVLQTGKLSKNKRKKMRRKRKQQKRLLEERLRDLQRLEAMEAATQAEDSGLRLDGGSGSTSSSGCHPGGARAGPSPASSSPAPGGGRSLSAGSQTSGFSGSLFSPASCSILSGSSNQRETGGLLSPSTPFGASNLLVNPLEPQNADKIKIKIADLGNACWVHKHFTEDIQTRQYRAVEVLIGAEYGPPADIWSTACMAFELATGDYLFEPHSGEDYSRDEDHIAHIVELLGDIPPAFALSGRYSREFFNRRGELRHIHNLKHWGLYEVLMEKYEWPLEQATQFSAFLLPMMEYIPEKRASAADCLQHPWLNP

[13] = target: SGK2 (Homo sapiens, UniProt Q9HBY8); test: Kinase selectivity panel; assay type: biochemical; settings: [ATP] = 1 mM
Chain of SGK2 (Q9HBY8 whole entry, species assumed): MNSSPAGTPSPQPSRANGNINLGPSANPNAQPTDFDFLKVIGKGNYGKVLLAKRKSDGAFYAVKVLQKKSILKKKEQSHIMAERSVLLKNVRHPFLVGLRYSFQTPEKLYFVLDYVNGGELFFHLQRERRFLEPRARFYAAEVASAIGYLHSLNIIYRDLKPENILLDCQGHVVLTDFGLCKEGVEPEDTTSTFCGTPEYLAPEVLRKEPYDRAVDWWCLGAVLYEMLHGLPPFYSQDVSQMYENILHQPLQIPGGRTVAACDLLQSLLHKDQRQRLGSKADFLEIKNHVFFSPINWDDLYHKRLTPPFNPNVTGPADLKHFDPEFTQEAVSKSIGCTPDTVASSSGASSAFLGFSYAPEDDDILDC

[14] = target: SGK3 (Homo sapiens, UniProt Q96BR1); test: Kinase selectivity panel; assay type: biochemical; settings: [ATP] = 1 mM
Chain of SGK3 (Q96BR1 whole entry, species assumed): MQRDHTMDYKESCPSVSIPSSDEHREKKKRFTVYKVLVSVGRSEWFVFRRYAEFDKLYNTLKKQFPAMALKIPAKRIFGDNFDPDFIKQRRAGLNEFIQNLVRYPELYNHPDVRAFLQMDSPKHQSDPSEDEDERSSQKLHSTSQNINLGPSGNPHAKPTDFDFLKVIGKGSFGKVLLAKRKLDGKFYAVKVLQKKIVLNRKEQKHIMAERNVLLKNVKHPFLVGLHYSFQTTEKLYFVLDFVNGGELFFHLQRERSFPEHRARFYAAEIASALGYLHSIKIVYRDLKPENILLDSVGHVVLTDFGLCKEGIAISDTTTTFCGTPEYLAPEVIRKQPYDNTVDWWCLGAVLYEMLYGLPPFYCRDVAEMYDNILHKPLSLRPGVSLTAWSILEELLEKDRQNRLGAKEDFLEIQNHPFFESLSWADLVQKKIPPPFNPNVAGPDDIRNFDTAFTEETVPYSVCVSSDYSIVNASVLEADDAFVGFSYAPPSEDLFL

[15] = target: TGFBR1 (Homo sapiens, UniProt P36897); test: Kinase selectivity panel; assay type: biochemical; settings: [ATP] = 1 mM
Chain of TGFBR1 (P36897 34-503, species assumed): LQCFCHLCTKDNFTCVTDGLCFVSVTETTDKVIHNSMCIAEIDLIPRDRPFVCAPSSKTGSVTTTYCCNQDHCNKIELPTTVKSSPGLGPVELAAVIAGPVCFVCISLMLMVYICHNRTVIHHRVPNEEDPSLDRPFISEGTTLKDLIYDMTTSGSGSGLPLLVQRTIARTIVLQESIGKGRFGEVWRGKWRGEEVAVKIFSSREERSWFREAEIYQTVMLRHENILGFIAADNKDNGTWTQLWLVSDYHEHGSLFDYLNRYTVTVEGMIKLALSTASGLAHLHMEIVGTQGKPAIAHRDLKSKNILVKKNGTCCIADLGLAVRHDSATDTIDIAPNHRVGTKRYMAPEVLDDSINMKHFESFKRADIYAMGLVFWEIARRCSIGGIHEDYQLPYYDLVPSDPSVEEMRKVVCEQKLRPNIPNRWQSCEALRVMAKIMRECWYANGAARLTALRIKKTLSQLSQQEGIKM

[16] = target: Per-Arnt-Sim (PAS) kinase (Homo sapiens, UniProt Q96RG2); test: PAS kinase activity, further evaluation; assay type: biochemical
[17] = tested on: MM cell lines; test: Cell proliferation assay, all MM cell lines tested; assay type: cell-based; settings: read-out: mean GI50 values, range over all MM cell lines tested
Experimental: The antiproliferative effects of INCB053914 on hematologic tumor cells were investigated using assays described in the Supporting Information (S2 File).
Cell proliferation assays. […] After 3 to 4 days, [^3H]-thymidine (1 μCi/well) (PerkinElmer) in PBS (10 μl) was added to the cell culture for an additional 12 hours. The incorporated radioactivity was separated by filtration with water through GF/B filters (Packard Bioscience, Meriden, Connecticut) and measured by liquid scintillation counting with a TopCount (Packard Bioscience).

[18] = tested on: phosphorylation of BAD in KMS-12-BM cells; test: pBAD S112 ELISA in cells; assay type: cell-based; settings: Homo sapiens, 2.5 hours, RPMI + 10% FBS, read-out: mean (± SD) IC50, pBAD inhibition
Experimental: (§1) The effect of INCB053914 on the level of pBAD was further investigated in KMS-12-BM and MOLM-16 cells, which were suspended in RPMI + 10% fetal bovine serum (FBS) and seeded into 96-well v-bottom polypropylene plates (Greiner, Munroe, North Carolina; 4 × 10^5 cells/well/100 μl) in the presence of 5 μl INCB053914 at a final concentration range of 0.1 nM to 1,000 nM. After 2.5 hours at 37°C and 5% CO2, the cells were lysed in 100 μl of cell extraction buffer (Cell Signaling Technology) containing phenylmethane sulfonyl fluoride, Halt^TM phosphatase, and protease inhibitors (Thermo Fisher Scientific, Waltham, Massachusetts; Calbiochem). The concentration of pBAD protein in the cell lysates was quantified using a Human pBAD S112 ELISA Kit (Cell Signaling Technology).

[19] = tested on: phosphorylation of BAD in MOLM-16 cells; test: pBAD S112 ELISA in cells; assay type: cell-based; settings: Homo sapiens, MOLM16, 2.5 hours, RPMI + 10% FBS, read-out: mean (± SD) IC50, pBAD inhibition
Experimental: as §1

[20] = tested on: BAD phosphorylation in KMS-12-BM tumors; test: Intratumoral pBAD inhibition in xenograft-bearing mice; assay type: in vivo; settings: Mus musculus, single oral dose, 4 hours post dose, read-out: IC50, inhibition of BAD phosphorylation relative to vehicle in tumors
Experimental: (§2) Human MOLM-16 (AML) and KMS-12-BM (MM) xenografts were established in SCID mice. For the evaluation of intratumoral pBAD inhibition, tumor-bearing mice (three to eight mice/group) were treated with a single oral dose of INCB053914 at doses ranging from 0 (vehicle) to 100 mg/kg. In one representative experiment, mice were sacrificed 4 hours after a single dose, and tumors were collected to analyze the levels of pBAD relative to those of vehicle-administered controls. Plasma samples were collected for pharmacokinetic analysis.

[21] = tested on: BAD phosphorylation in MOLM-16 tumors; test: as above; assay type: in vivo; settings: Mus musculus, MOLM16, single oral dose, 4 hours post dose, read-out: IC50, inhibition of BAD phosphorylation relative to vehicle in tumors
Experimental: as §2

[22] = tested on: BAD phosphorylation in whole blood spiked with MOLM-16 cells; test: BAD phosphorylation in whole blood samples spiked with tumor cells, treated ex vivo; assay type: cell-based; settings: MOLM16
[23] = Tolerability in tumor-bearing SCID mice; assay type: in vivo; settings: MOLM-16 and KMS-12-BM tumor-bearing mice, oral twice a day up to 100 mg/kg
Experimental: Non- GLP studies intended to characterize the pharmacology of INCB053914 were conducted in accordance with Incyte Corporation's Animal Use Protocols and DuPont Stine-Haskell SOPs. Animals were housed in barrier facilities fully accredited by the Association for Assessment and Accreditation of Laboratory Animal Care, International. All of the procedures were conducted under the supervision of a veterinarian and in accordance with the U.S. Public Health Service Policy on Humane Care and Use of Laboratory Animals. […] Analgesics and anesthetics could be used to minimize animal suffering and distress; neither were required during these studies. Animals on study were monitored twice daily and there were no unexpected deaths.
For the evaluation of the effects of INCB053914 on tumor growth, tumor-bearing mice (MOLM-16 xenograft, eight mice/group; KMS-12-BM xenograft, nine mice/group) were dosed orally twice a day with INCB053914 at doses ranging from 0 (vehicle) to 100 mg/kg for 15 days.

[24] = tested on: human KG-1 AML xenografts; test: Tumor growth in KG-1 (AML) xenograft, combination with cytarabine; assay type: in vivo, mouse; settings: KG-1 (AML) tumors
Experimental: Female immune compromised (severe combined immunodeficiency [SCID]) mice (5–9 weeks of age; Charles River Laboratories, Wilmington, Massachusetts) were inoculated with MOLM-16, KG-1, or KMS-12-BM cells. A cell suspension in Dulbecco’s phosphate-buffered saline (DPBS) (1 × 10^8 cells/ml) was mixed 1:1 (v/v) with matrigel, and 200 μl was injected subcutaneously into the flank of each mouse. […] The treatment of tumor-bearing mice started 7 to 24 days after tumor inoculation for efficacy studies and approximately 14 to 27 days after tumor inoculation for pharmacodynamic studies.
Synergistic effects of INCB053914 in combination with INCB050465, cytarabine, or itacitinib, were assessed based on the Bliss independence model [56, 57]. In this model, the expected additive effect, with the assumption that concentration dependent effects of 2 drugs (A and B) are independent, is given by the equation EIND = EA + EB – EA •EB, where 0 ≤ EIND ≤ 1; EA and EB are the magnitudes of effects of A and B alone at given concentrations.
The interaction between effects of A and B can be described by the equation Combination Index = EIND/ EOBS, where EOBS is the observed combined effect of A + B expressed as a probability (0 ≤ EOBS ≤ 1). […]

C[C@H]1CN(c2c(NC(=O)c3ccc(F)c(-c4c(F)cccc4F)n3)cnc3c2CC[C@H]3O)C[C@@H](N)[C@@H]1O.O=P(O)(O)O [INCB053914, N-((R)-4-((3R,4R,5S)-3-amino-4-hydroxy-5-methylpiperidin-1-yl)-7-hydroxy-6,7-dihydro-5H-cyclopenta[b]pyridin-3-yl)-6-(2,6-difluorophenyl)-5-fluoropicolinamide phosphate]
IC50 [1]: 0.015 µM | IC50 [2]: > 20 µM | IC50 [3]: > 20 µM | IC50 [4]: > 20 µM | IC50 [5]: > 20 µM | IC50 [6]: > 20 µM | IC50 [7]: > 20 µM | IC50 [8]: > 20 µM | IC50 [9]: > 20 µM | IC50 [10]: > 20 µM | IC50 [11]: > 20 µM | IC50 [12]: > 20 µM | IC50 [13]: > 20 µM | IC50 [14]: > 20 µM | IC50 [15]: > 20 µM | effect on PAS kinase activity relative to PIM2 [16]: approximately equipotent effects on PIM2 and PAS kinase activities | GI50 [17]: 0.0132 to 0.23 µM | IC50 [18]: 0.027 µM | IC50 [19]: 0.004 µM | IC50 [20]: 0.145 µM | IC50 [21]: 0.07 µM | IC50 [22]: 0.076 µM | tolerability [23]: tolerated at all doses tested | tumor growth, single agent [24]: inhibited
